The values that follow are results of earlier work, collected in patent publication US20230285350A1, “FORMULATIONS FOR TETRACAINE AND LIDOCAINE” (LYOTIP, INC., priority 2020, published 2023).

Molecules are shown by their SMILES. Some results are limits rather than exact numbers.

On to `CCCCNc1ccc(C(=O)OCCN(C)C)cc1` [Tetracaine], for which, under “used in the eyes”, the Onset of effects was at most 30 s and the duration of effects entry is on record as “less than 15 minutes”. With `CCN(CC)CC(=O)Nc1c(C)cccc1C` [lidocaine, Lidocaine], the duration of effect entry (used as an injectable) was “half an hour to three hours”. As for `CNC[C@H](O)c1ccc(O)c(O)c1` [Epinephrine], where the note is “used with tetracaine”, the “prolongation of numbing effect and motor block effect of the anesthetic” value is on record as “up to an hour”.
